Reference: US11873295B2, “Allosteric chromenone inhibitors of phosphoinositide 3-kinase (PI3K) for the treatment of disease” (Petra Pharma Corporation, priority 2021, dated 2024)

Columns and labels:
[1] = biological target: T1, human full length PIK3KA Wild-type (p110α/p85α complex) (Homo sapiens, UniProt P42336); test: PI3K-alpha kinase (PIK3CA) biochemical activity, wild-type, ADP-Glo; settings: PI3K-α (PIK3CA) biochemical, Soy PI lipid substrate
T1 construct: Recombinant, catalytically active human full length PIK3KA Wild-type and H1047R mutant were purchased as 1:1 complex; 6xHis (N); purchased EMD Millipore Sigma 14-602M
Method in brief: (§1)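 ADP formation, read by ADP-Glo, is run to about 10% ATP turnover at 27 °C with 20 μM ATP and 50 μM PIP2diC8 or soy PI. WT or H1047R p110α/p85α (1–5 nM) is pre-incubated 1 h with compound in HEPES pH 7.4/MgCl2/Triton buffer, 1% DMSO. 10-point 1:3 series, logistic IC50 versus no-enzyme and DMSO controls.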

[2] = biological target: T2, human full length PIK3KA H1047R mutant (p110α/p85α complex) (Homo sapiens, UniProt P42336, H1047R); test: PI3K-alpha kinase (PIK3CA) biochemical activity, H1047R mutant, ADP-Glo; settings: PI3K-α (PIK3CA) biochemical, H1047R mutant, Soy PI lipid substrate
T2 construct: Recombinant, catalytically active human full length PIK3KA Wild-type and H1047R mutant were purchased as 1:1 complex; 6xHis (N); purchased EMD Millipore Sigma 14-792M
Method in brief: as §1

[3] = test system: PI3K-α (PIK3CA) in MDA-MB-453 cells; test: PI3K-alpha kinase (PIK3CA) activity in vitro cell based assay, MDA-MB-453 cells, AlphaLisa SureFire; settings: Homo sapiens, MDA-MB-453, 3 h, 0% FBS, 3 hours treatment, relative IC50
Method in brief: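 MDA-MB-453 cells in serum-free MEM with 1 μg/mL insulin treated 3 h with 10-point 1:3 compound dilutions, 0.3% DMSO. Lysates read by AlphaLisa SureFire; percent inhibition relative to DMSO (max) and 1 μM GDC-0032 (min), duplicate means fitted to 4-parameter logistic for relative IC50.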

T2 sequence (P42336 whole entry H1047R): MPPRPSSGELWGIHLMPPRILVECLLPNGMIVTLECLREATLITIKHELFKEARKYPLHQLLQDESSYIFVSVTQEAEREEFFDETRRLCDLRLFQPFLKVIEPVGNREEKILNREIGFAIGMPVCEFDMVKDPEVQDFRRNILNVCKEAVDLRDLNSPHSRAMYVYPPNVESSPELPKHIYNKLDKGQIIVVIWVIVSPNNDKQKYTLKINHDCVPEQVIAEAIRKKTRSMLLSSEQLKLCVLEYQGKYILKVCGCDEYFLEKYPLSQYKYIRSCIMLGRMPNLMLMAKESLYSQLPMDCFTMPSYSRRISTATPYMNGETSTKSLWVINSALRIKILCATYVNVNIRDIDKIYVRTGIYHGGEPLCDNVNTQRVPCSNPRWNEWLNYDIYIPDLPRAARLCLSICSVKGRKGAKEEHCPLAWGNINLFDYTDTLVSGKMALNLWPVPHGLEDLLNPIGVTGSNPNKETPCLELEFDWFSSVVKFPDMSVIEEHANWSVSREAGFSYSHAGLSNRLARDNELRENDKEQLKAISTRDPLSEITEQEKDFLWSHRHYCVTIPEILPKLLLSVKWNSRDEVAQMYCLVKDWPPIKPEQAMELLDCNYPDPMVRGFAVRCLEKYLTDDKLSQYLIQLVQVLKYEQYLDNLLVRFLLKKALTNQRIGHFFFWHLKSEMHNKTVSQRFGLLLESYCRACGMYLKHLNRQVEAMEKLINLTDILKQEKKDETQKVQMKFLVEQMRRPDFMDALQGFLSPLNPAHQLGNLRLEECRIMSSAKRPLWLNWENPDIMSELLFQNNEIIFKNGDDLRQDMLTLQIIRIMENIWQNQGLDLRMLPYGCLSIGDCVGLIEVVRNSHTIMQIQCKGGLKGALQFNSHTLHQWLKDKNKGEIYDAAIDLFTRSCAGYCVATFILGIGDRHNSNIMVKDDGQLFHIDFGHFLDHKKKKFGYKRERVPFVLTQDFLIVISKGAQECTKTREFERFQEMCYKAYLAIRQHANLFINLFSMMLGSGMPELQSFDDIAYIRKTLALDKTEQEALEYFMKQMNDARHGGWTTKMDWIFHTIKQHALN
T2 sequence (P27986 whole entry partner): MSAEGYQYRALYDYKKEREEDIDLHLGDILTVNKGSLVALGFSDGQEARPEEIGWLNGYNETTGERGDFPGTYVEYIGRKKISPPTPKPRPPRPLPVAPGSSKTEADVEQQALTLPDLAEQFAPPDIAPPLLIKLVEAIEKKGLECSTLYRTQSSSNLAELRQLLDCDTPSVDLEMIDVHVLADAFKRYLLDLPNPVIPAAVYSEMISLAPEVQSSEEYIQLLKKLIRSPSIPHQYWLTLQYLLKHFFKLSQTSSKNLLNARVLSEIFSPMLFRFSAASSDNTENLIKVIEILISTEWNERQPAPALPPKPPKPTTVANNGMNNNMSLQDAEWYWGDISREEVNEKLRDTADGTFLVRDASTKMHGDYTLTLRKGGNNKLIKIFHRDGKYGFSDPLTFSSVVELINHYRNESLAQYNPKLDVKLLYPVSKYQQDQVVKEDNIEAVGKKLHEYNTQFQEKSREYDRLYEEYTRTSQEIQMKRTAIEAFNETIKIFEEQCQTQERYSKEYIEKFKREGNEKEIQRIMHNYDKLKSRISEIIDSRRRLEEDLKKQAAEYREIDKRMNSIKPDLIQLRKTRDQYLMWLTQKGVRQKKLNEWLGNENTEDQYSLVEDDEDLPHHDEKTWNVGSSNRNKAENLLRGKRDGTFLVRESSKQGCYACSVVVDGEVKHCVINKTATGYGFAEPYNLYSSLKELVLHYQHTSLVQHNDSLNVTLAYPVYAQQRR

| Compound | IC50 [1] [µM] | IC50 [2] [µM] | IC50 [3] [µM] |
| --- | --- | --- | --- |
| Cc1cc([C@@H](C)Nc2ccc(F)cc2C(=O)O)c2oc(-c3ccccc3)c(C)c(=O)c2c1 [Example 58, 2-[[(1R)-1-(3,6-Dimethyl-4-oxo-2-phenyl-chromen-8-yl)ethyl]amino]-5-fluoro-benzoic acid] | < 0.5 | < 0.5 | < 0.05 |
| COc1cccc(-c2cc(=O)c3cc(C)cc([C@@H](C)Nc4ccccc4C(=O)O)c3o2)c1 [Example 60, 2-[[(1R)-1-[2-(3-Methoxyphenyl)-6-methyl-4-oxo-chromen-8-yl]ethyl]amino]benzoic acid 2,2,2-trifluoroacetic acid] | 0.5 to 1 | < 0.5 | < 0.05 |
| Cc1cc([C@@H](C)Nc2ccccc2C(=O)O)c2oc(-c3ccc(F)c(F)c3)cc(=O)c2c1 [Example 63, 2-[[(1R)-1-[2-(3,4-DifIuorophenyl)-6-methyl-4-oxo-chromen-8-yl]ethyl]amino]benzoic acid 2,2,2-trifluoroacetic acid] | 1 to 5 | < 0.5 | < 0.05 |
| COc1ccc(-c2cc(=O)c3cc(C)cc([C@@H](C)Nc4ccccc4C(=O)O)c3o2)cc1 [Example 66, 2-[[(1R)-1-[2-(4-Methoxyphenyl)-6-methyl-4-oxo-chromen-8-yl]ethyl]amino]benzoic acid 2,2,2-trifluoroacetic acid] | 1 to 5 | < 0.5 | < 0.05 |
| COc1ccccc1-c1cc(=O)c2cc(C)cc([C@@H](C)Nc3ccccc3C(=O)O)c2o1 [Example 67, 2-[[(1R)-1-[2-(2-Methoxyphenyl)-6-methyl-4-oxo-chromen-8-yl]ethyl]amino]benzoic acid 2,2,2-trifluoroacetic acid] | > 10 | < 0.5 | 0.05 to 0.1 |
| Cc1cc([C@@H](C)Nc2ccccc2C(=O)O)c2oc(-c3cc(F)cc(F)c3)cc(=O)c2c1 [Example 68, 2-[[(1R)-1-[2-(3,5-Difluorophenyl)-6-methyl-4-oxo-chromen-8-yl]ethyl]amino]benzoic acid 2,2,2-trifluoroacetic acid] | 1 to 5 | < 0.5 | < 0.05 |
| Cc1cc([C@@H](C)Nc2cccc(F)c2C(=O)O)c2oc(-c3ccccc3)c(C)c(=O)c2c1 [Example 69, 2-[[(1R)-1-(3,6-Dimethyl-4-oxo-2-phenyl-chromen-8-yl)ethyl]amino]-6-fluoro-benzoic acid] | 0.5 to 1 | < 0.5 | < 0.05 |
| Cc1cc([C@@H](C)Nc2ccccc2C(=O)O)c2oc(-c3ccccc3)c(C(F)(F)F)c(=O)c2c1 [Example 70, 2-[[(1R)-1-[6-Methyl-4-oxo-2-phenyl-3-(trifluoromethyl)-chromen-8-yl]ethyl]amino]benzoic acid 2,2,2-trifluoroacetic acid] | 1 to 5 | < 0.5 | < 0.05 |
| Cc1cc([C@@H](C)Nc2ccccc2C(=O)O)c2oc(-c3cccc(C(F)F)c3)c(C)c(=O)c2c1 [Example 73, 2-[[(1R)-1-[2-[3-(Difluoromethyl)phenyl]-3,6-dimethyl-4-oxo-chromen-8-yl]ethyl]amino]benzoic acid 2,2,2-trifluoroacetic acid] | > 10 | < 0.5 | < 0.05 |
| Cc1cc([C@@H](C)Nc2ccccc2C(=O)O)c2oc(-c3ccc(F)cc3F)c(C)c(=O)c2c1 [Example 75, 2-[[(1R)-1-[2-(2,4-Difluorophenyl)-3,6-dimethyl-4-oxo-chromen-8-yl]ethyl]amino]benzoic acid] | 1 to 5 | < 0.5 | < 0.05 |
| Cc1cc([C@@H](C)Nc2cccc(Cl)c2C(=O)O)c2oc(-c3ccccc3)c(C)c(=O)c2c1 [Example 76, 2-Chloro-6-[[(1R)-1-(3,6-dimethyl-4-oxo-2-phenyl-chromen-8-yl)ethyl]amino]benzoic acid] | 5 to 10 | < 0.5 | < 0.05 |
| Cc1cc([C@@H](C)Nc2ccccc2C(=O)O)c2oc(-c3ccc(F)c(F)c3)c(C)c(=O)c2c1 [Example 78, 2-[[(1R)-1-[2-(3,4-Difluorophenyl)-3,6-dimethyl-4-oxo-chromen-8-yl]ethyl]amino]benzoic acid 2,2,2-trifluoroacetic acid] | 1 to 5 | < 0.5 | < 0.05 |
| C[C@@H](Nc1ccc(Cl)nc1C(=O)O)c1cc(C(F)(F)F)cc2c(=O)cc(-c3ccc(F)cc3F)oc12 [Example 81, 6-Chloro-3-[[(1R)-1-[2-(2,4-difluorophenyl)-4-oxo-6-(trifluoromethyl)-chromen-8-yl]ethyl]amino]pyridine-2-carboxylic acid] | 1 to 5 | < 0.5 | < 0.05 |
| Cc1c(-c2ccccc2)oc2c([C@@H](C)Nc3ccccc3C(=O)O)cc(F)cc2c1=O [Example 84, 2-[[(1R)-1-(6-Fluoro-3-methyl-4-oxo-2-phenyl-chromen-8-yl)ethyl]amino]benzoic acid 2,2,2-trifluoroacetic acid] | 5 to 10 | < 0.5 | > 0.5 |
| Cc1cc([C@@H](C)Nc2ccccc2C(=O)O)c2oc(-c3ccccc3)c(-c3cnoc3)c(=O)c2c1 [Example 85, 2-[[(1R)-1-(3-Isoxazol-4-yl-6-methyl-4-oxo-2-phenyl-chromen-8-yl)ethyl]amino]benzoic acid 2,2,2-trifluoroacetic acid] | 1 to 5 | < 0.5 | < 0.05 |
| C[C@@H](Nc1ccc(Cl)nc1C(=O)O)c1cc(C(F)(F)F)cc2c(=O)cc(-c3ccc(F)c(F)c3)oc12 [Example 88, 6-Chloro-3-[[(1R)-1-[2-(3,4-difluorophenyl)-4-oxo-6-(trifluoromethyl)-chromen-8-yl]ethyl]amino]pyridine-2-carboxylic acid] | 1 to 5 | < 0.5 | < 0.05 |
| Cc1c(-c2ccccc2)oc2c([C@@H](C)Nc3ccc(Cl)nc3C(=O)O)cc(C(F)(F)F)cc2c1=O [Example 91, 6-Chloro-3-[[(1R)-1-[3-methyl-4-oxo-2-phenyl-6-(trifluoromethyl)-chromen-8-yl]ethyl]amino]pyridine-2-carboxylic acid] | 1 to 5 | < 0.5 | < 0.05 |
| Cc1cc([C@@H](C)Nc2ccccc2C(=O)O)c2oc(-c3cccc(F)c3F)c(C)c(=O)c2c1 [Example 92, 2-[[(1R)-1-[2-(2,3-Difluorophenyl)-3,6-dimethyl-4-oxo-chromen-8-yl]ethyl]amino]benzoic acid 2,2,2-trifluoroacetic acid] | 5 to 10 | < 0.5 | < 0.05 |
| Cc1cc(C(C)Nc2cccnc2C(=O)O)c2oc(-c3ccccc3F)c(C)c(=O)c2c1 (stereo not drawn) [Example 93, 3-[1-[2-(2-Fluorophenyl)-3,6-dimethyl-4-oxo-chromen-8-yl]ethylamino]pyridine-2-carboxylic acid 2,2,2-trifluoroacetic acid] | > 10 | 1 to 5 | 0.1 to 0.5 |
| Cc1cc(C(C)Nc2cccc(F)c2C(=O)O)c2oc(-c3ccccc3F)c(C)c(=O)c2c1 (stereo not drawn) [Example 94, 2-Fluoro-6-[1-[2-(2-fluorophenyl)-3,6-dimethyl-4-oxo-chromen-8-yl]ethylamino]benzoic acid 2,2,2-trifluoroacetic acid] | 1 to 5 | < 0.5 | < 0.05 |
